Experimental data from patent US20240358885A1, “COMPOSITIONS FOR EMBOLIZATION” (IBERHOSPITEX, S.A., priority 2021, published 2024).

Assays:
[1] = Precipitation behavior on slow injection into PBS; type: physicochemical; design: key: cohesive (2); cohesive with loss of some material (1); uncontrollable injection or not cohesive (0); details: score; 100 ul injected slowly into PBS, 27 G needle
Procedure: (§1) The resulting solutions were assayed to assess the precipitation behavior and the radiopacity loss.
Embolization formulations were slowly injected into phosphate buffered saline (PBS) using a syringe and a fine needle (27 G). Precipitates of embolizing material were obtained after slow injection (1 minute approximately) of 100 ul of embolization formulations. The precipitation behavior was observed and scored as cohesive (2), cohesive with loss of some material (1) and uncontrollable injection or not cohesive (0).

[2] = Radiopacity loss and homogeneity of precipitates incubated in PBS at 37° C.; type: physicochemical; design: key to Homogeneous radiopacity (0-1): non-homegeneous (score=0); homogeneous (score=1); details: for radiopacity loss in PBS over time (in words): PBS at 37° C., 30 min and 30 days; for Radiopacity loss (0-3) / Homogeneous radiopacity (0-1): score; for Radiopacity loss (0-3): 30 days in PBS at 37° C. vs time=0, 150 mg equivalent iodine/ml with 6% ethylene vinyl alcohol copolymer in DMSO; for Homogeneous radiopacity (0-1): C-arm X-ray
Procedure: as §1
Radiopacity loss of precipitates was determined by comparing the radiopacity of freshly prepared samples (time=0) and samples incubated for 30 days in phosphate buffered saline (PBS) at 37° C. PBS was changed daily when possible. Radiopacity was determined using a C-arm X-ray equipment (OEC Fluorostar 7900COMPACT2, General Electric). Radiopacity loss was scored as radiostable (score =0) when the radiopacity loss was below 5%, slightly radiolabile when the radiopacity loss was comprised between 5 to 25% radiopacity loss (score=1), moderately radiolabile when the radiopacity loss was comprised between 26 to 69% radiopacity loss (score=2) and highly radiolabile when the radiopacity loss was comprised between 70to 100% radiopacity loss (score=3). Homogeneity of the radiopacity was also scored as non-homegeneous (score=0) or homogeneous (score=1).
The procedure was as defined above. It can be observed that formulations with high logP values, i.e. above 7.0, are radiostable, while formulations with low logP values, i.e. below 2.0 (logP (LFE13)=−1.6 and logP (LFE23) at pH 7.4=−0.5) lose their radiopacity within minutes.

[3] = as above; type: physicochemical; details: 30 min of incubation in PBS at 37° C.
[4] = test system: renal artery; assay: In vivo embolization of porcine kidney; details: 0.6 ml injected into the renal artery, 35 kg swine
Procedure: In this example, a 35 kg swine was prepared for blood vessel embolization using the embolic composition LFE09 prepared according to Example 2. Embolization of the left kidney proceeded by placement of a microcatheter into the kidney. The catheter was advanced into the renal artery, flushed with contrast agent to identify the location and then flushed with DMSO, followed by 0.6 ml of the LFE09 composition described above, followed yet by more DMSO within the catheter. LFE09 composition was quickly injected into the renal artery. […] After 14 days, the right kidney was embolized with 0.6 ml of the same LFE09 formulation and the animal was euthanized.

[5] = 30 days of incubation in PBS at 37° C.

Structure (SMILES)	Precipitation (0-2) [1]	% of radiopacity compared to time zero [2, 5]	radiopacity loss in PBS over time (in words) [2]	Radiopacity loss (0-3) [2]	Homogeneous radiopacity (0-1) [2]	% of radiopacity compared to time zero ([2]; t zero)	% of radiopacity compared to time zero [3]	embolization of the kidney (in words) [4]
CCCOC(=O)Cn1cc(I)c(=O)c(I)c1 [LFE03]	2	14.5%	significant radiopacity loss	3 (highly radiolabile when the radiopacity loss was comprised between 70to 100% radiopacity loss (score=3))	1	100.0%		
COCCOCCOCCOCCOCCOc1c(I)cc(I)cc1I [LFE07]	2			2 (moderately radiolabile when the radiopacity loss was comprised between 26 to 69% radiopacity loss (score=2))	1			
COCCOCCOCCOCCOCCOCc1cc(I)cc(I)c1I [LFE19]	2			1 (slightly radiolabile when the radiopacity loss was comprised between 5 to 25% radiopacity loss (score=1))	1			
CCCCCCOC(=O)c1c(I)c(NC(C)=O)c(I)c(NC(C)=O)c1I [LFE21]	2	91.4%	significant radiopacity loss	1 (slightly radiolabile when the radiopacity loss was comprised between 5 to 25% radiopacity loss (score=1))	1	100.0%		
O=C(OCCOCCOCCOCCOCCO)c1cc(I)cc(I)c1I [LFE17]	2			2 (moderately radiolabile when the radiopacity loss was comprised between 26 to 69% radiopacity loss (score=2))	1			
CCCCC(CC)COc1c(I)cc(I)cc1I (centres unmarked) [LFE24]	1	101.9%	complete radiostability	0 (radiostable (score =0) when the radiopacity loss was below 5%)	0	100.0%	101.3%	
CCCCCCOc1c(I)cc(I)cc1I [LFE01]	2			1 (slightly radiolabile when the radiopacity loss was comprised between 5 to 25% radiopacity loss (score=1))	0			
O=C(COc1c(I)cc(I)cc1I)OCCOCCOCCO [LFE10]	2			3 (highly radiolabile when the radiopacity loss was comprised between 70to 100% radiopacity loss (score=3))	1			
CC(=O)Nc1c(I)c(NC(C)=O)c(I)c(C(=O)O)c1I [LFE23, Diatrizoic acid, reference compound]	1	19.0%		3 (highly radiolabile when the radiopacity loss was comprised between 70to 100% radiopacity loss (score=3))	1	100.0%	35.6%	
OCCOCCOCCOc1c(I)cc(I)cc1I [LFE06]	2			2 (moderately radiolabile when the radiopacity loss was comprised between 26 to 69% radiopacity loss (score=2))	1			
CCCCCCOC(=O)Cn1cc(I)c(=O)c(I)c1 [LFE04]	2			2 (moderately radiolabile when the radiopacity loss was comprised between 26 to 69% radiopacity loss (score=2))	1			
CN(C(=O)CO)c1c(I)c(C(=O)NCC(O)CO)c(I)c(C(=O)NCC(O)CO)c1I (centres unmarked) [LFE13, iomeprol, reference compound]	0	11.9%		3 (highly radiolabile when the radiopacity loss was comprised between 70to 100% radiopacity loss (score=3))	1	100.0%	29.0%	
COCCOCCOCCOc1c(I)cc(I)cc1I [LFE05]	2			3 (highly radiolabile when the radiopacity loss was comprised between 70to 100% radiopacity loss (score=3))	0			
CC(=O)OCC(=O)N(C)c1c(I)c(C(=O)NCC(COC(C)=O)OC(C)=O)c(I)c(C(=O)NCC(COC(C)=O)OC(C)=O)c1I (centres unmarked) [LFE14]	2			3 (highly radiolabile when the radiopacity loss was comprised between 70to 100% radiopacity loss (score=3))	1			
COCCOCCOCCOCCOCCOCCOCCOCCOCCOCCOCCOCCOc1c(I)cc(I)cc1I [LFE08]	0	29.3%	significant radiopacity loss	2 (moderately radiolabile when the radiopacity loss was comprised between 26 to 69% radiopacity loss (score=2))	1	100.0%		
COCCOCCOCCOCc1cc(I)cc(I)c1I [LFE20]	2			1 (slightly radiolabile when the radiopacity loss was comprised between 5 to 25% radiopacity loss (score=1))	0			
COCCOCCOCCOC(=O)COc1c(I)cc(I)cc1I [LFE09]	2	64.7%	significant radiopacity loss	3 (highly radiolabile when the radiopacity loss was comprised between 70to 100% radiopacity loss (score=3))	1	100.0%		the upper pole of the kidney was blocked
CC(=O)OCCOCCOCCOc1c(I)cc(I)cc1I [LFE12]	2			2 (moderately radiolabile when the radiopacity loss was comprised between 26 to 69% radiopacity loss (score=2))	0			
CCOC(=O)COc1c(I)cc(I)cc1I [LFE02, ethyl 2,4,6-triiodophenoxyacetate]	1			2 (moderately radiolabile when the radiopacity loss was comprised between 26 to 69% radiopacity loss (score=2))	0			
CCCOC(=O)c1c(I)c(NC(C)=O)c(I)c(NC(C)=O)c1I [LFE22]	2			1 (slightly radiolabile when the radiopacity loss was comprised between 5 to 25% radiopacity loss (score=1))	1			
